Data set [1] has as its system Det551. The data set can be described thus: AlamarBlue cell proliferation (cytotoxicity) assay. Format: cell-based, human. The note with it: 120 hours drug exposure, normal skin cells. On the procedure:
(§1) Cells growing exponentially were transferred to 384-well flat bottom tissue culture plates. […] After 24 hours (day 0), 25 µL of complete medium containing the compounds over the dose range of 10^-3 to 10^-10 M were added in triplicate. Drug exposure time was 120 hours (day 5), after which growth inhibition was assayed. 5 µL of the redox indicator, alamarBlue, was added to each well (10% v/v).
(§2) Numbering in Tables 5 and 6 refer to the structures, shown infra. […] MCF7-TDX was derived from MCF7 breast tumor cells via selection in cell culture in the presence of Tomudex, a direct inhibitor of TS. […] Similarly, H630R10 is a 5FU (fluoropyrimidine) resistant colon cancer epithelial cell line derived from H630 colon cancer cells. […] HT1080, #12, is a fibrosarcoma tumor cell line that expresses high levels ofTS via a transgene introduced into HT1080 tumor cells. Normal cell lines used in these assays include CCD180co (normal colon epithelium) and Det551 (normal skin).

For data set [2], the system named is H630R10. Put plainly: AlamarBlue cell proliferation (cytotoxicity) assay. The conditions noted are these: 120 hours drug exposure, dose range 10^-3 to 10^-10 M. Type of data set: cell-based, human. Here is the method:
as §1, §2
For orientation: Alamar Blue is a resazurin reagent that responds to reducing activity.

For data set [3], the system named is MCF7TDX. Put plainly: AlamarBlue cell proliferation (cytotoxicity) assay. Type of data set: cell-based, human. The note with it: 120 hours drug exposure, dose range 10^-3 to 10^-10 M. On the procedure: as §1, §2
The subject of data set [4] is Tumor Cells. Put plainly: AlamarBlue cell proliferation (cytotoxicity) assay, mean over tumor cells. Format: cell-based. The note with it: for mean IC30 over tumor cell lines: alamarBlue, mean of the MCF7TDX, H630R10 and HT1080 (µM); for activity (in words, summary of Tables 5 and 6): text comment on the cytotoxicity data. Here is the method:
as §1, §2

The subject of data set [5] is Normal Cells. Put plainly: AlamarBlue cell proliferation (cytotoxicity) assay, mean over normal cells. The note with it: mean of CCd18co and Det551 (µM). Type of data set: cell-based, human. Here is the method:
as §1, §2

Data set [6] has as its system HT1080. Put plainly: AlamarBlue cell proliferation (cytotoxicity) assay. Format: cell-based. The note with it: dose range 10^-3 to 10^-10 M. Here is the method: as §1, §2
Data set [7] deals with CCd18co. The data set can be described thus: AlamarBlue cell proliferation (cytotoxicity) assay. Type of data set: cell-based, human. The note with it: 120 hours drug exposure, normal colon epithelium cells. On the procedure: as §1, §2
Data set [8] has as its system H630R10. The data set can be described thus: Crystal violet cell proliferation inhibition assay. Format: cell-based, human. The note with it: 72 hours incubation. On the procedure:
(§3) Compound concentrations from 1 µM to 3000 µM were tested.
as §2

For data set [9], the system named is CCd18co. Put plainly: Crystal violet cell proliferation inhibition assay. Format: cell-based. The conditions noted are these: Homo sapiens, CCD-18Co, 72 hours incubation, normal colon epithelium cells. Here is the method:
as §3, §2
(§4) Table 7. Cytotoxic Activity of NB1024 Isomers

Data set [10] relates to Det551. The data set can be described thus: Crystal violet cell proliferation inhibition assay. Format: cell-based. The note with it: Homo sapiens, 72 hours incubation, normal skin cells. On the procedure: as §3, §2, §4
For data set [11], the system named is HT1080 # 12. Put plainly: Crystal violet cell proliferation inhibition assay. Type of data set: cell-based. The note with it: high TS via transgene. Here is the method: as §3, §2, §4
Data set [12] relates to Tumor Cells. Put plainly: Crystal violet cell proliferation inhibition assay, mean over tumor cells. Format: cell-based. Here is the method:
as §3, §2

For data set [13], the system named is Normal Cells. Put plainly: Crystal violet cell proliferation inhibition assay, mean over normal cells. Type of data set: cell-based, human. The conditions noted are these: mean of the CCD18co and Det551 columns. On the procedure:
as §3, §2

Data set [14] relates to H630R10 (5-FU resistant colon cancer cell line). The data set can be described thus: Amount of nucleoside and monophosphate in cells (HPLC of lysates after BVdU treatment). The conditions noted are these: 2 days treatment with 100 µm BVdU.
Experimental: (§5) 100 µM of BVdU was added to each dish and the cells continued to grow for 2 days at 37°C. After that, the medium was aspirated and the cells were washed twice with phosphate buffered saline (PBS). Then 1 ml of PBS per dish was added and the dishes were placed in a -80°C freezer. The cells were disrupted via freezing/thawing procedure, repeated twice. The cell debris in the resulting suspension were spun down (13,000 rpm,10 minutes) and the supernatant was deproteinized by passing though a Centrifugal Filter Device (Centrifree, 30,000 cut-off, Amicon) by centrifugation at 5,000 rpm for 30 minutes on Sorvall Super T21 centrifuge (Rotor SL-50-T, 1,912 g) at 20°C. The pass-through was concentrated to the volume of 100 µl, and injected onto an HPLC column (Adsorbosphere HS, C18, 5 µm, 4.6 mm x 150 mm, Alltech). The samples were analyzed using acetonitrile gradient in water containing trifluoroacetic acid. The peaks were detected at 300 mm the maximum of absorption of BVdU-derivatives, and the amounts of compounds were expressed as peak area at 300 nm. […]
(§6) The amounts of reference compounds BVdUMP or BVdU present in lysates call lines MCF7, MCF7TDX, and H630R10 each treated with BVdU, are expressed as an area of a corresponding HPLC peak at 300 nm. […]
(§7) Cells were incubated in complete media with 100 µm BVdU. Lysates were prepared and BVdUMP and BVdU levels were determined.
In data set [15] the test system is MCF7 (breast cancer cell line).
Experimental: as §5, §6, §7
The subject of data set [16] is MCF7TDX (Tomudex resistant breast cancer cell line).
Experimental: as §5, §6, §7
The subject of data set [17] is H630R10 (5-FU resistant colon cancer cell line).
Experimental: as §5, §6, §7
Setting [18] is: Homo sapiens, HT-1080, 120 hours drug exposure.

pIC50: −log10 of the molar value.

As a reminder, the IC50 is the midpoint of a concentration-inhibition curve. The low end stands for greater potency in that assay, the high end for weaker potency in that assay. By IC30 is commonly meant the concentration needed for an effect of 30%. In the case of `COC(=O)C(C)NP(=O)(OCC1OC(n2cc(C(F)(F)F)c(=O)[nH]c2=O)CC1O)Oc1ccccc1` (centres unmarked) [NB1014], the IC50 in [1] worked out at 239 µM; in data set [5] it was 139 µM. Moreover, the IC30 in data set [2] worked out at 287 µM; in data set [3] it was 396 µM. The same molecule came in with a mean IC30 over tumor cell lines in data set [4] of 342 µM.

Turning to `O=c1ccn(C2CC(O)C(CO)O2)c(=O)[nH]1` (centres unmarked) [NB1026], the 30% effect concentration (IC30) in [2], in data set [3] and in data set [6] (120 hours drug exposure) was 1000 µM each time. Also, the “activity (in words, summary of Tables 5 and 6)” value in [4] is “little detectable activity”.

A word on the pIC50: it is the negative decadic logarithm of the IC50, by convention in mol/L. Read a high pIC50 as a low IC50. Consider `O=c1[nH]c(=O)n([C@H]2C[C@H](O)[C@@H](CO)O2)cc1/C=C/Br` [BVdU, (E)-5-(2-Bromovinyl)-2'-deoxyuridine, reference compound], for which the IC50 came to 1000 µM in data set [7] (Homo sapiens, CCD-18Co); 1000 µM in data set [5] (Homo sapiens, CCD-18Co); 405 µM in [8] (Homo sapiens); 1 mM in data set [9]; 625 µM in [10]; 7 µM in [11] (Homo sapiens, HT-1080, 72 hours incubation). The molecule further returned a concentration for half-maximal inhibition (IC50) in [12] (Homo sapiens, HT-1080, mean of the H630R10 and HT1080 # 12 columns (uM)) of 206 µM. The IC30 in data set [2] (Homo sapiens) was 201 µM; in data set [3] (Homo sapiens), 0.02 µM; in data set [6] (setting [18]) it was 719 µM. For the same molecule, in data set [4] (Homo sapiens, HT-1080), the mean IC30 over tumor cell lines came out at 307 µM. Further, the pIC50 in data set [13] (Homo sapiens, CCD-18Co) was 3.09. For the same molecule, the “BvdUMP/(BVdUMP + BVdU) x100” value in data set [14] was less than 4.

In the case of `O=c1[nH]c(=O)n([C@H]2C[C@H](O)[C@@H](CO)O2)cc1C=CCl` [NB1020, 5-(2-chlorovinyl)-2'-deoxyuridine], the IC50 in data set [7] (Homo sapiens, CCD-18Co) was 1000 µM; in data set [5] (Homo sapiens, CCD-18Co), 1000 µM. Further, the IC30 worked out at 326 µM in [2] (Homo sapiens), 0.48 µM in data set [3] (Homo sapiens) and 1000 µM in [6] (setting [18]). In addition, the mean IC30 over tumor cell lines in data set [4] (Homo sapiens, HT-1080) was found to be 442 µM.

For the molecule `O=c1[nH]c(=O)n([C@H]2C[C@H](O)[C@@H](COP(=O)(O)O)O2)cc1/C=C/Br` [BVdUMP], the entries for the “amount present in cell lysate, expressed as area of the HPLC peak at 300 nm” value in data set [15], in data set [16] and in [17] were 63.7, 10.9 and less than 1, respectively.

Consider “5-(2-Bromovinyl)-2'-Deoxyuridine Phenyl N-Methoxy-L-alaninyl Phosphoramidate [NB1011]”, for which the 50% inhibitory concentration (IC50) in data set [7] amounted to 414 µM; in [1], 398 µM; in data set [5] it was 406 µM; in [8], 130 µM; in data set [11] (72 hours incubation), 1.2 µM; in [12] (mean of the H630R10 and HT1080 # 12 columns (uM)) it was 65.6 µM. The values for the IC30 in data set [2], in data set [3] and in data set [6] (120 hours drug exposure) were 82 µM, 2 µM and 182 µM, respectively. Moreover, the mean IC30 over tumor cell lines in data set [4] came out at 88.7 µM. In addition, the pIC50 in data set [13] is 3.42.

With `COC(=O)[C@H](C)NP(=O)(OC[C@H]1O[C@@H](n2cc(/C=C/Cl)c(=O)[nH]c2=O)C[C@@H]1O)Oc1ccccc1` (some centres unmarked) [NB1013], the half-maximal inhibitory concentration (IC50) in data set [1] and in data set [5] was 570 µM each time. Also, the IC30 amounted to 92 µM in data set [2] and 26 µM in data set [3]. For the same molecule, the mean IC30 over tumor cell lines in [4] is 59 µM.

As for `COC(=O)C(C)NP(=O)(OCC1OC(n2ccc(=O)[nH]c2=O)CC1O)Oc1ccccc1` (centres unmarked) [NB1025], the half-maximal inhibitory concentration (IC50) in data set [7] and in data set [5] was 378 µM each time. Moreover, the IC30 in [3] turned out to be 49 µM; in [6] (120 hours drug exposure), 454 µM. Moreover, the mean IC30 over tumor cell lines in [4] was 232 µM. Further, in data set [4], the “activity (in words, summary of Tables 5 and 6)” value is recorded as “active”.

The record behind these values is patent EP1200455B1, “ENZYME CATALYZED THERAPEUTIC ACTIVATION” (Celmed Oncology (USA), Inc., priority 1999, dated 2001).
